Experimental data reported in publication PMC9088311, “Cyclic Thiosulfonates for Thiol-Mediated Uptake: Cascade Exchangers, Transporters, Inhibitors” (JACS Au, 2022).
Values after ≈ are worked out from the molar mass of the structure shown. Values joined by “and” are separate entries in the source; they are usually repeats but may differ in a detail not shown here. Equal entries are not always repeated.

Columns and labels:
in vitro = conditions: human
[1] = Dynamic covalent ring opening with thiol 10, 1H NMR kinetics; assay type: physicochemical
Protocol: The dynamic covalent opening of CTO 3 with thiols yields product 9 with a disulfide and a sulfinate (Figure 3B). Consistent with short chalcogen bonds found in silico, the opening of CTO 3 was instantaneous on an NMR timescale with most thiols. To decelerate ring opening, bulky thiols were considered in combination with lowered pH to deactivate the nucleophile. With N-Ac-D-penicillamine 10, the opening of 5 mM CTO 3 in phosphate buffer/DMSO-d6 9:1 was still immediate at pD 6.7 but became detectable in ^1H NMR spectroscopy kinetics under more acidic conditions. The ring-opening rate constants k^O were estimated by fitting the initial velocities to second-order kinetics. Only lower bound rates were approximated from the earliest determined substrate conversions when reactions were still too fast despite the unfavorable conditions. At pD 5.4, dynamic covalent ring opening of CTO 3 with equimolar tertiary thiol 10 occurred with k^O > 0.49 M^–1 s^–1 and equilibrated at K = 6.0 × 10^3 M^–1 (Table 1, entry 1, Figures S4 and S5). At pD 2.7, further deceleration to k^O = 0.10 M^–1 s^–1 shifted the equilibrium to K = 500 M^–1 (Table 1, entry 2, Figures S6 and S7). […] At equilibrium, the concentration of thiol 10 further decreased slowly due to oxidation into the homodimer (Figure 3C, diamonds).
Equilibrium constants for reactions with two reactants A and B and a product C are […]
3.1.1. Dynamic Covalent Ring Opening with Thiols
General procedure A (at 5 mM): To a solution of deuterated sodium phosphate (200 mM in D 2O, pD 2.7 or 5.4, 180 mM final concentration), a stock solution of substrate (0.10 M in DMSO-d6, 5.0 mM final concentration) was added and stirred. Then a stock solution of 10 (0.10 M in DMSO- d6, 5.0 mM final concentration) was added and vigorously stirred at room temperature. The solution was transferred immediately to an NMR tube and NMR data were recorded repeatedly. The concentration of the substrate or thiol at each time plot was calculated by comparing the integrals of the peaks indicated with arrows in the figures, and plotted. The data points were fitted to obtain k1 with the Equation (S6) or (S7) using Graphpad Prism.
General procedure B (at 2 mM): To a solution of deuterated sodium phosphate (200 mM in D 2O, pD 2.7 or 5.4, 180 mM final concentration), DMSO- d6 (10% DMSO- d6 in the reaction mixture) and a stock solution of substrate (0.10 M in DMSO- d6, 2.0 mM final concentration) were added and stirred. Then a stock solution of 10 (0.10 M in DMSO- d6, 2.0 mM final concentration) was added and vigorously stirred at room temperature. The solution was transferred immediately to an NMR tube and NMR data were recorded repeatedly. The concentration of the substrate or thiol at each time plot was calculated by comparing the integrals of the peaks indicated with arrows in the figures, and plotted. The data points were fitted to obtain k1 with the Equation (S6) or (S7) using Graphpad Prism.
General procedure C (for thiosulfinates): To a solution of deuterated sodium phosphate (200 mM in D 2O, pD 5.4, 170 mM final concentration), a stock solution of substrate (0.10 M in DMSO- d6, 5.0 mM final concentration) was added and stirred. Then a stock solution of 10 (0.10 M in DMSO- d6, 10 mM final concentration) was added and vigorously stirred at room […]
data points were fitted to obtain k1 with the Equation (S14) or (S16) using Graphpad Prism. […]
3.1.2. Dependence of Ring Opening on Proticity
A mixture of deuterated phosphoric acid and NaOD (30% in D 2O), which gave pD 2.7 in D2O, was used as buffer in all solvent mixtures. To a solution of deuterated sodium phosphate (20 mM final concentration) in a mixture of D 2O and DMSO- d6 (540 μL, final D 2O content: […]
concentration) was added and stirred. Then a stock solution of 10 (0.10 M in DMSO- d6, 5.0 mM final concentration) was added and vigorously stirred at room temperature. The solution was transferred immediately to an NMR tube and 1H NMR data were recorded repeatedly. […]

cathepsin B = cathepsin B (Homo sapiens, UniProt P07858); test: Cathepsin B inhibition (preliminary, not shown); assay type: biochemical; conditions: 50 μM; preliminary results
cathepsin L = cathepsin L (Homo sapiens, UniProt P07711); test: Cathepsin L inhibition (preliminary, not shown); assay type: biochemical; conditions: 50 μM; preliminary results
cathepsin L, sequence (P07711 114-333, species assumed): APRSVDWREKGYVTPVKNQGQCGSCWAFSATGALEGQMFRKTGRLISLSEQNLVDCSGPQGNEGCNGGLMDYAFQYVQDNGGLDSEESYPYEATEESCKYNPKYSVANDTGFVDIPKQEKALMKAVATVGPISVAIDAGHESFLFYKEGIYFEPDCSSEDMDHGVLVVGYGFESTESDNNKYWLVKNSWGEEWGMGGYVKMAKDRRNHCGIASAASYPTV

trypsin = test: Trypsin inhibition (preliminary, not shown); assay type: biochemical; conditions: 50 μM; preliminary results
HK cells, transporter 31 = conditions: transporter 31 10 μM, pre-incubation (P), cited from earlier work; for IC50: read-out: IC50 (concentration needed to reach 50% inhibition)
HeLa Kyoto cells = conditions: with transporter 31; pre-incubation (P); cited from earlier work
HK cells, transporter 32 = tested on: HK cells, transporter 32; design: method as in PMID 34173696; conditions: transporter 32 0.5 or 1 μM, pre-incubation (P), cited from earlier work
[2] = equimolar 10, rt, pD 2.7, 90% D2O, Na+ phosphate 180 mM, substrate 2 mM

Row | SMILES | viability at 7 h, 50 µM (in vitro) | k^O, rate constant of ring opening (or equivalent for acyclic controls) [1, 2] | krel^O, rate constant of ring opening relative to 3 ([1]; pD 2.7, 90% D2O, 2 mM) | inhibition of cathepsin B (in words) (cathepsin B) | inhibition of cathepsin L (in words) (cathepsin L) | inhibition of trypsin (in words) (trypsin) | IC50 (HK cells, transporter 31) | MIC (concentration needed to reach 15% inhibition) (HK cells, transporter 31) | RV50 (concentration needed to lower relative viability by 50%) (HeLa Kyoto cells) | further results
1 | O=C1O[C@H]2CSS(=O)(=O)C[C@H]2O1 [Compound 11] | 84% | >12 M^–1 s^–1 | >120 | – | – | – | – | – | – | ring opening faster than 3 (fold) ([1]; with thiol 10, pD 2.7): > 100 ×
2 | O=S1(=O)C[C@H](O)[C@H](O)CS1 (stereo in doubt) [Compound 3, (4S,5R)-4,5-dihydroxy-1,2-dithiane-1,1-dioxide] | 81% | – | – | inhibits | not L | inhibits | > 1000 µM | 200 µM (≈ 36.8 µg/mL) | 1300 µM | k^O, rate constant of ring opening ([1]; equimolar 10, rt, pD 2.7, 90% D2O/DMSO-d6, Na+ phosphate 180 mM, substrate 5 mM): 0.10 M^–1 s^–1 and 0.10 ^i M^–1 s^–1; k^O, rate constant of ring opening (or equivalent for acyclic controls) ([1]; equimolar 10, rt, pD 5.4, 90% D2O/DMSO-d6, Na+ phosphate 180 mM, substrate 5 mM): >0.49 M^–1 s^–1; k^O, rate constant of ring opening ([1]; estimated pD 2.7, Na+ phosphate 20 mM, 2% D2O, 5 mM): >1.4 M^–1 s^–1; k^O, rate constant of ring opening ([1]; estimated pD 2.7, Na+ phosphate 20 mM, 5% D2O, 5 mM): >1.3 M^–1 s^–1; k^O, rate constant of ring opening ([1]; estimated pD 2.7, Na+ phosphate 20 mM, 8% D2O, 5 mM): >1.4 M^–1 s^–1; k^O, rate constant of ring opening ([1]; estimated pD 2.7, Na+ phosphate 20 mM, 10% D2O, 5 mM): >2.1 M^–1 s^–1; k^O, rate constant of ring opening ([1]; estimated pD 2.7, Na+ phosphate 20 mM, 30% D2O, 5 mM): >2.8 M^–1 s^–1; k^O, rate constant of ring opening ([1]; estimated pD 2.7, Na+ phosphate 20 mM, 50% D2O, 5 mM): >1.3 M^–1 s^–1; k^O, rate constant of ring opening ([1]; estimated pD 2.7, Na+ phosphate 20 mM, 70% D2O, 5 mM): 0.28 ± 0.03 M^–1 s^–1 and 0.28 M^–1 s^–1; k^O, rate constant of ring opening ([1]; estimated pD 2.7, Na+ phosphate 20 mM, 90% D2O, 5 mM): 0.15 ± 0.01 M^–1 s^–1 and 0.15 M^–1 s^–1; krel^O, rate constant of ring opening relative to 3 ([1]; pD 2.7, 90% D2O, 5 mM): 1; krel^O, rate constant of ring opening relative to 3 ([1]; pD 5.4, 90% D2O, 5 mM): 1; IC50 (HK cells, transporter 32; read-out: IC50 (concentration needed to reach 50% inhibition)): 550 µM; MIC (concentration needed to reach 15% inhibition) (HK cells, transporter 32): 250 µM (≈ 46.1 µg/mL)
3 | [O-][S+]1C[C@@H](O)[C@@H](O)CS1 (stereo partly drawn) [Compound 2] | – | – | – | – | – | – | > 5000 µM | 800 µM (≈ 135 µg/mL) | 4400 µM | k^O, rate constant of ring opening (or equivalent for acyclic controls) ([1]; 2 equiv of 10, rt, pD 5.4, 85% D2O, Na+ phosphate 170 mM, substrate 5 mM): 0.001 M^–1 s^–1; krel^O, rate constant of ring opening relative to 3 ([1]; pD 5.4, 85% D2O, 5 mM, 2 equiv of 10): <0.002; ring opening/exchange slower than CTO 3 (fold) ([1]; with thiol 10, pD 5.4): > 500 ×
4 | O=S1(=O)C=C[C@@H](O)CS1 [Compound 12] | – | >6.1 M^–1 s^–1 | >61 | inhibit only cathepsin B | inhibit only cathepsin B | inhibit only cathepsin B | – | – | – | –
